The values below come from patent publication US20050245498A1, “Sterically-awkward beta-lactamase inhibitors” (priority 2002, published 2005).

For orientation: Km means the concentration of substrate that gives half-maximal velocity. What is called kcat is the number of substrate molecules converted per active site and unit of time at saturation. The IC50 is the concentration at which inhibition is half-maximal.

Converted amounts (≈) assume the structure as drawn. Like-named read-outs stand apart in the source and are kept apart here.

The subject of data set [1] is CC(=O)OCC1=C(C(=O)O)N2C(=O)[C@@H](NC(=O)Cc3cccs3)[C@H]2SC1. The experiment in a line: purified protein, by the assay type. The following applies: other: hydrolysis by AmpC, 1.75 nM enzyme, 50 mM Tris pH 7.
The test system of data set [2] is CO/N=C(\C(=O)N[C@@H]1C(=O)N2C(C(=O)O)=C(COC(C)=O)CS[C@H]12)c1csc(N)n1. The experiment in a line: purified protein, by the assay type. The following applies: other: hydrolysis by AmpC, 1.75 nM enzyme, 50 mM Tris pH 7.
Data set [3] has as its system CO/N=C(\C(=O)N[C@@H]1C(=O)N2[C@@H]1SC(C)(C)[C@@H]2C(=O)O)c1csc(N)n1. The experiment in a line: purified protein, by the assay type. Particulars: other: hydrolysis by AmpC, 1.75 nM enzyme, 50 mM Tris pH 7.
For data set [4], the target named is T1, AmpC β-lactamase (Escherichia coli, UniProt P00811). The following applies: hydrolysis by AmpC, 1.75 nM enzyme, 50 mM Tris pH 7. As to the method: Escherichia coli. AmpC β-lactamase was expressed and purified to homogeneity as previously described. The AmpC-catalyzed hydrolysis of the various β-lactams was monitored in an HP8453 UV/visible spectrophotometer. […] The reaction buffer used during the assays was 50 mM tris hydroxymethyl aminomethane hydrochloride (Fisher, Fair Lawn N.J.) at pH 7 in doubly-deionized water. kcat and KM values were determined at an enzyme concentration of 1.75 nM, with enzyme concentration determined, from more concentrated stocks, based on an ε280 of 0.098 μM^−1 cm^−1. […] Except for compounds synthesized for this study (ATMO-penicillin, ATMO-loracarbef), all compounds were used as supplied from the manufacturers without further purification.
T1 sequence (P00811 20-377): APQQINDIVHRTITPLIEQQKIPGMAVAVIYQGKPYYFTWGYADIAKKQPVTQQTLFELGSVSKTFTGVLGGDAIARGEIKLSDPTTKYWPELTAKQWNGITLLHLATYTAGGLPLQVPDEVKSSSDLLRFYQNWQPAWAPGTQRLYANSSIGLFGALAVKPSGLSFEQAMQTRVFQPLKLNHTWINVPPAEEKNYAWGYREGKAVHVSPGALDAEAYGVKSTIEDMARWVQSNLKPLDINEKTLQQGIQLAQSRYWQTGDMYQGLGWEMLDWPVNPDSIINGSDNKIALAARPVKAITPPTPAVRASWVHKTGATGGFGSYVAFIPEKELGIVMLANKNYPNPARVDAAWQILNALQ
Enzymology. The AmpC-catalyzed hydrolysis of the β-lactams cefotaxime, ATMO-penicillin, and ATMO-loracarbef (FIG. 1B) were monitored by UV-vis spectroscopy (Table 1).

The subject of data set [5] is E. coli expressing AmpC β-lactamase. The experiment in a line: microbe, parasite or virus in culture. The class given is cell-based. The following applies: for Minimum inhibitory concentration (MIC): E. coli expressing AmpC β-lactamase, Luria Broth, about 5×10^5 CFU/mL. The method, then: (§1) Microbiology. Serial dilution assays in ligand culture were performed to examine the efficacy of these awkward β-lactams against clinically relevant pathogens grown in liquid culture (Table 3). The compounds were dissolved in KPi or tris hydroxymethyl aminomethane hydrochloride to a concentration of 20-50 mM, and serial dilutions were performed into Luria Broth (Difco, Detroit Mich.). Each broth solution was then inoculated with bacterial cells from an overnight culture that had been diluted to give an inoculum concentration of approximately 5×10^5 CFU/mL.

Data set [6] has as its system E. coli not expressing AmpC β-lactamase. The data set is described as follows: microbe, parasite or virus in culture. The class given is cell-based. The following applies: for Minimum inhibitory concentration (MIC): E. coli not expressing AmpC β-lactamase, Luria Broth, about 5×10^5 CFU/mL. As to the method: as §1
Data set [7] addresses T1, AmpC β-lactamase. The data set is described as follows: biochemical. On the set-up: made in house. The following applies: for IC50 compared to cefotaxime (fold lower): relative to cefotaxime IC50.
Where [8] appears, read: Escherichia coli, read-out: Minimum inhibitory concentration (MIC).

Take “AmpC β-lactamase (Escherichia coli K-12)”: in data set [1], the Km was found to be 31.3 µM. Moreover, the turnover number (kcat) was 262 s⁻¹ in data set [1], 0.0448 s⁻¹ in data set [2] and less than 0.0045 s⁻¹ in data set [3].

With `CON=C(C(=O)NC1C(=O)N2C(C(=O)O)=C(Cl)CCC12)c1csc(N)n1` (centres unmarked) [ATMO-loracarbef, 7-ATMO-3-chloro-carbacephem], the Kcat at AmpC β-lactamase [4] worked out at 0.0323 s⁻¹. Further, the results for the “Minimum inhibitory concentration (MIC)” value in data set [5] and in data set [6] were 1 µg/mL (≈ 2.5 µM) and “¼”, respectively. At AmpC β-lactamase [7] (against 200 μM nitrocefin, read-out: IC50), the IC50 is 80 nM. In addition, on AmpC β-lactamase [7], the “IC50 compared to cefotaxime (fold lower)” value is 11 fold.

On to `N[C@@H](C(=O)N[C@@H]1C(=O)N2C(C(=O)O)=C(Cl)CC[C@H]12)c1ccccc1` [Loracarbef, loracarbef], for which the values for the Kcat at AmpC β-lactamase [4] and at AmpC β-lactamase [4] (listed as loracarbef) were 118.3 s⁻¹ and 118 s⁻¹, respectively. The Michaelis-Menten constant (Km) at AmpC β-lactamase [4] was 23.7 µM. In addition, the “Minimum inhibitory concentration (MIC)” value was 8 µg/mL (≈ 22.9 µM) in data set [5] and 4 µg/mL (≈ 11.4 µM) in data set [6].

On to `CC1(C)S[C@@H]2[C@H](NC(=O)Cc3ccccc3)C(=O)N2[C@H]1C(=O)O` [Penicillin G, penicillin G], for which, on AmpC β-lactamase [4], the Kcat came to 133.1 s⁻¹ and the Michaelis-Menten constant (Km) came to 5.05 µM. The Kcat at AmpC β-lactamase [4] (listed as penicillin G) came to 133 s⁻¹.

`CC(=O)OCC1=C(C(=O)O)N2C(=O)[C@@H](NC(=O)Cc3cccs3)[C@H]2SC1` [Cephalothin, cephalothin]: the Kcat at AmpC β-lactamase [4] turned out to be 263 s⁻¹. Besides, the MIC was determined as 64 µg/mL (≈ 161 µM) in data set [5] (setting [8]) and 8 µg/mL (≈ 20.2 µM) in data set [6] (setting [8]).

For `CO/N=C(\C(=O)N[C@@H]1C(=O)N2[C@@H]1SC(C)(C)[C@@H]2C(=O)O)c1csc(N)n1` [ATMO-penicillin], at AmpC β-lactamase [4], the Kcat was less than 0.0045 s⁻¹. On AmpC β-lactamase [7], half-maximal inhibition (IC50) was put at 900 nM and the “IC50 compared to cefotaxime (fold lower)” value was “comparable to cefotaxime”.

Regarding `CO/N=C(\C(=O)N[C@@H]1C(=O)N2C(C(=O)O)=C(COC(C)=O)CS[C@H]12)c1csc(N)n1` [Cefotaxime, cefotaxime], the “Minimum inhibitory concentration (MIC)” value is 1/32 in data set [5] and 1/128 in data set [6]. Moreover, inhibition against AmpC β-lactamase [7] was half-maximal at 800 nM (IC50).
